Measured values published in patent US7754742B2, “Imidazole carboxamides” (Eli Lilly and Company, priority 2008, dated 2010).

How the values were obtained:
Male Fischer F-344 rats = assay: Attenuation of stress-induced hyperthermia in rats; assay type: in vivo, rat; conditions: p.o., 4 hr pretreatment
Excerpt: In many anxiety disorders, hyperthermia occurs as part of the pathology and is considered a symptom of the disease. Compounds which attenuate stress-induced hyperthermia in animals are believed to be useful in treating anxiety disorders in humans.
The conventional and minimally-invasive method for analyzing stress-induced hyperthermia is by measuring body temperature, and stress-induced increases in body temperature, via rectal thermometer. Male Fischer F-344 rats (Harlan, Indianapolis, Ind., USA) weighing between 275-350 g are tested. All animals are individually-housed with food and automated water available ad libitum, and maintained on a 12 h light/dark cycle (lights on at 06:00). Animals are fasted for approximately 12-18 hours before the experiment, which is conducted during the light phase. […]
After the pretreatment period, rats are taken individually to a brightly lit adjacent room where baseline body temperatures are determined by insertion of a rectal probe lubricated with mineral oil. Body temperature is assessed using a PHYSITEMP BAT-12® Microprobe Thermometer with a PHYSITEMP RET-2® rat rectal probe (Physitemp Instruments Inc., Clifton, N.J., USA). […] Ten minutes later a second body temperature measurement is recorded (T2). […]

[1] = test system: Male Holtzman Sprague-Dawley rats; assay: Positive differential reinforcement in rats (DRL-72 second schedule); assay type: in vivo, rat; conditions: reinforced responses divided by total responses, 10 mg/kg, IP, dose 0 group 0.25
Excerpt: The differential reinforcement of low rates-72 second (DRL-72) schedule has been extensively used as a screen for clinically effective antidepressant agents including imipramine, fluoxetine, paroxetine and others (Sokolowski J D, Seiden L S. 1999. The behavioral effects of sertraline, fluoxetine, and paroxetine differ on the differential-reinforcement-of-low-rate 72-second operant schedule in the rat. Psychopharm (Berl). 147(2): 153-61). […] As such, compounds which show positive result in differential reinforcement in animals are believed to be useful in treating depression in humans.
Male Holtzman Sprague-Dawley rats are water restricted (water available 20′ per day following the test session) and trained to lever press for a 4″ access to 0.025 ml of water for each correct response during daily 60 minute sessions. All testing takes place on weekdays only. After successful lever press training, rats are then required to respond under a DRL-24 second schedule, where only lever presses that are separated by 24 seconds are reinforced. Upon stable responding on a DRL-24 second schedule, rats are trained on a DRL-72 second schedule until responding stabilizes at approximately 15% efficiency. […] Response efficiency is recorded as number of reinforced responses divided by total number of responses. […]

human mGluR2 receptor = molecular target: T1, human mGluR2 receptor (Homo sapiens, UniProt Q14416); assay: Functional in vitro activity at human mGluR2 receptor (FLIPR calcium response, potentiator mode); assay type: cell-based; conditions: relative EC50; potentiation of glutamate EC10 response; cells expressing human mGluR2, rat EAAT 1 and Gα15
T1 construct: expressed in transfected cells; stably expresses human mGluR2, co-transfected with rat EAAT1 and Galpha15
T1 sequence (Q14416 19-872): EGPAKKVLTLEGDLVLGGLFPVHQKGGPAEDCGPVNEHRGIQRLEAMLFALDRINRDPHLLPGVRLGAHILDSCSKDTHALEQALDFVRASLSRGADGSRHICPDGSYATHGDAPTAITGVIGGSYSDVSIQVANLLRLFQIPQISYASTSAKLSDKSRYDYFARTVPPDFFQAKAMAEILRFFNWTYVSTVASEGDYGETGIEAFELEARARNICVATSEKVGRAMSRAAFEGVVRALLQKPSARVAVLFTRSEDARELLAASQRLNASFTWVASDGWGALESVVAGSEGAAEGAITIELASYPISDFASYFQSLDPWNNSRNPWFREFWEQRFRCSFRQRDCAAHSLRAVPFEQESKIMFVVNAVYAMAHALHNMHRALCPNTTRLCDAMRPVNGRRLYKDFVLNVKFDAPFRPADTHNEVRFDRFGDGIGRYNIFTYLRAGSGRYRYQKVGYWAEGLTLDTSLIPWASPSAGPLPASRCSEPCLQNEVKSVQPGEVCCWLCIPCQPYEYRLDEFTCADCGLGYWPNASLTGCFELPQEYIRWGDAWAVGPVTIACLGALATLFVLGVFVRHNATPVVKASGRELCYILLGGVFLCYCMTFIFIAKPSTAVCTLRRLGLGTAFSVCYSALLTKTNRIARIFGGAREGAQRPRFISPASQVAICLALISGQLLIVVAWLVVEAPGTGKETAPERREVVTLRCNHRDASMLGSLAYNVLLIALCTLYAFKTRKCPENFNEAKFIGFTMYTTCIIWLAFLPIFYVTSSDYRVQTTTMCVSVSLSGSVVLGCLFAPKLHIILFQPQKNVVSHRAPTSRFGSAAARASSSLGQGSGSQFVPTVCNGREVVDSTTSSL
Excerpt: Functional in vitro activity at human mGluR2 receptor Cell lines stably expressing the human mGluR2 receptor (see for example Desai, Burnett, Mayne, Schoepp, Mol. Pharmacol. 48, 648-657, 1995) co-transfected with the rat glutamate transporter EAAT 1 (Excitatory Amino Acid Transporter 1) and the Gα15 subunit were used for these studies. The expression of Gα15 allows this Gi-coupled receptors to couple to phospholipase C, resulting in the ability to measure receptor activation by a fluorometric calcium response assay. […]
Intracellular calcium levels were monitored before and after the addition of compounds using a Fluorometric Imaging Plate Reader (FLIPR, Molecular Devices, Union City, Calif. USA). […] The results were analyzed (GraphPad® Prism v4, Graphpad Software, LaJolla, Calif., USA) to calculate the concentrations of glutamate needed to induce the EC10 responses.
Compounds were tested in a two-addition FLIPR assay using a 10-point concentration response profile starting at a final concentration of 25 μM (agonist mode) or 12.5 μM (potentiator mode). […] After taking an initial fluorescent read of the cell plate for 5 seconds, compound was added to the cell plate (50 uL per well). […]
The maximal response was defined as that induced by ECmax (100 μM glutamate). […] Agonist effects were quantified as percent stimulation induced by compound alone relative to the maximal glutamate response. […]

For CC(C)C(=O)c1ccc(OCc2ccc(CNC(=O)c3cn(C)cn3)cc2)c(C(F)(F)F)c1O [Example 1, 1-Methyl-1H-imidazole-4-carboxylic acid 4-(3-hydroxy-4-isobutyryl-2-trifluoromethyl-phenoxymethyl)-benzylamide], which “T35 dose (dose producing a 35% reduction in stress-induced hyperthermic response relative to vehicle)” value (Male Fischer F-344 rats) is on record?
Its value is 3.2 mg/kg.

And the “Response Efficiency” value [1]?
Its value is 0.56.

What about the EC50 (human mGluR2 receptor) of the same molecule?
Its EC50 is 22.5 nM.

And the melting point?
The melting point was 164.7 °C.
